# Data as given in PubChem BioAssay AID493102 (Broad Institute, 2011).
# Test system: SK-MEL-5 TRPM1-promoter luciferase reporter, 24 h
# Experiment: TRPM1 promoter luciferase signal decrease, dose response, MITF inhibitor project, cell-based, SK-MEL-5, cherry-picked, set 4 (AID 493102);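 further: actives lower the luciferase signal so the potency reflects inhibition of reporter expression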
row,SMILES,AC50 [µM]
1,COc1cc(NC(=O)c2ccc([N+](=O)[O-])o2)ccc1NC(=O)c1cccs1,8.46
2,C=CCN1C(=O)NC(=O)/C(=C/C=C/c2ccccc2)C1=O,5.94
3,CN(C)S(=O)(=O)c1ccc(-c2csc(N/N=C/c3ccco3)n2)cc1,3.9
4,O=C(Nc1ccc(Nc2ccncc2)cc1)c1ccc([N+](=O)[O-])cc1,7.22
5,COC(=O)CSC1=C(C#N)C(=O)NC(c2ccccc2)S1 (stereo unspecified),7.06
6,CCOC(=O)C(=Cc1ccc(-n2ccnc2)cc1)C(=O)OCC,9.38
7,O=S1(=O)CCC(NC(=S)SCc2ccccc2Br)C1 (stereo unspecified),25.6
8,CC1CCC(C(C)C)C(OC(=O)Cn2c(-c3ccc(Br)cc3)[n+](C)c3ccccc32)C1 (stereo unspecified),7.12
9,O=C(N/N=C/c1ccc(F)cc1)c1c(O)c2ccccc2[nH]c1=O,9.64
10,CC1=C(CC(=O)c2ccccc2)C(=O)c2ccccc2C1=O,7.15
11,O=c1c(Cl)c(Cl)cnn1-c1ccccc1,9.54
12,CCN1CCN(c2ccc(NC(=O)c3ccc([N+](=O)[O-])o3)cc2Cl)CC1,9.54
13,COc1ccc(-c2nn(-c3ccccc3)cc2/C=N/N=C(N)N)cc1OC,14.6
14,CCN(CC)CCNC(=O)c1c(C)n(-c2ccccc2)c2cc(Br)c(OC)cc12,12.9
15,CC(C)CN=C(NS(=O)(=O)c1ccccc1)C(Cl)(Cl)Cl,11.1
16,CC1=NOC(=O)/C1=C\c1ccc(-c2cccc(Cl)c2)o1,5.36
17,CC1CCC(C(C)C)C(OC(=O)Cn2c(-c3ccccc3)[n+](C)c3ccccc32)C1 (stereo unspecified),2.37
18,CC(C)n1cc(/C=C/c2cc[n+](C)cc2)c2ccccc21,8.14
19,CCN1c2ccccc2NC2C1C(C(C)=O)C(=O)N2c1ccc(Cl)cc1 (stereo unspecified),12.7

row,SMILES,AC50 [µM]
1,CCOC(=O)c1c(C)oc2c(F)c(F)c(F)c(F)c2c1=O,2.32
2,Cc1c(C#N)c(O)n(CCO)c(=O)c1N=Nc1ccc2c(c1)COC2=O,9.69
3,O=C(/C=C/c1ccc([N+](=O)[O-])s1)N1CCCCC1,4.16
4,Cc1[nH]c2ccccc2c1C(=O)CCl,6.78
5,CC(C)(C)c1ccc(-c2noc(CCC(=O)NCC3CCCO3)n2)cc1 (stereo unspecified),0.275
6,CN(C)C1CCN(Cc2cc(COCc3ccccc3)c3cccnc3c2O)C1 (stereo unspecified),9.99
7,CCN1CCN(CCCNC(=O)c2ccc3c(c2)NC(=O)/C(=C\c2cccc(C)c2)S3)CC1,9.93
8,C/C(=N/NC(=O)C(O)(c1ccccc1)c1ccccc1)c1ccc([N+](=O)[O-])o1,9.84
9,CC1=CC2/C=C(\C)CCC(O)C(O)/C=C/C(=O)C23C(=O)NC(CC(C)C)C3C1C (stereo unspecified),6.58
10,O=C(CCl)N(Cc1cc(=O)[nH]c2ccccc12)c1ccccc1,5.42
11,Cc1cc(C)c2c(N)c(C(=O)Nc3ncc(C)s3)sc2n1,1.09
12,Cc1cccc(/C=C2/Sc3ccc(C(=O)NCCN4CCCC4)cc3NC2=O)c1,18.4
13,O=C(N/N=C/c1cc(Br)ccc1O)c1ccncc1,9.36
14,O=C(/C=C/c1ccc(Cl)cc1)c1ccc([N+](=O)[O-])o1,5.32
15,Cc1ccccc1Cn1c(=N)n(CC(=O)c2ccc([N+](=O)[O-])cc2)c2ccccc21,5.63
16,COc1ccccc1OCC(=O)N/N=C/C=C/c1ccc([N+](=O)[O-])o1,7.39
17,C1CCC(C(CC2CCCCN2)C2CCCCC2)CC1 (stereo unspecified),18.8
18,Nc1ccc(Oc2cccc(Oc3ccc(N)cc3)c2)cc1,1.1
19,CCC(=O)N1CCN(c2ccc(NC(=O)c3ccc([N+](=O)[O-])o3)cc2Cl)CC1,6.08

row,SMILES,AC50 [µM]
1,CC(C)n1c(O)c(C2c3cc(Cl)ccc3Oc3[nH]c(=O)n(C(C)C)c(=O)c32)c(=O)[nH]c1=O (stereo unspecified),5.39
2,CCN(CC)S(=O)(=O)c1cccc(C(=O)N/N=C/c2ccc([N+](=O)[O-])o2)c1,14.1
3,O=C1NC(=O)N(Cc2ccccc2)C(=O)/C1=C/C=C/c1ccco1,4.85
4,Cc1ccc(-c2cn(-c3ccc(SC(F)F)cc3)c3[n+]2CCC3)cc1,1.64
5,CC1(C(=O)N/N=C/c2ccc([N+](=O)[O-])o2)CC1(Br)Br (stereo unspecified),10.3
6,C/C(=N\NC(=O)Cc1ccc(Cl)cc1)c1ccccn1,4.22
7,Cc1ccc2nc(NC(=O)CCCC(=O)O)sc2c1,12.1
8,O=[N+]([O-])c1ccc(/C=N/N=C/c2ccc([N+](=O)[O-])o2)o1,9.36
9,O=C(N/N=C\c1ccc([N+](=O)[O-])o1)C1COc2ccccc2O1 (stereo unspecified),7.21
10,Cc1ccc(C)c(-n2c3nc(=O)[nH]c(=O)c-3cc3cc([N+](=O)[O-])ccc32)c1,8.42
11,COc1ccc(Oc2cc(NC(=O)c3nn(C)cc3[N+](=O)[O-])cc([N+](=O)[O-])c2)cc1,8.94
12,O=C(Cn1ncc(Cl)c(Cl)c1=O)Nc1ccc2c(c1)OCO2,13.2
13,CCc1ccc(NC2=CC(=O)C(=O)c3ccccc32)cc1,3.59
14,CC1CN(N=Cc2ccc([N+](=O)[O-])o2)C(=N)O1 (stereo unspecified),24.1
15,COc1cc(C(=O)N/N=C(\c2ccccc2)c2ccccn2)cc(OC)c1OC,13.8
16,COC(=O)[C@@H]1C[C@]2(OC(=O)c3ccccc3)C=CC(=O)C[C@@H]2N1C(=O)OCc1ccccc1,14
17,O=C1NC(=O)N(CCc2ccc(F)cc2)C(=O)/C1=C\C=C\c1ccccc1,8.26
18,COc1ccccc1OCCN1CSC(=S)N(C)C1,12.2
